US20260184712A1, “Heterocyclic Compounds as ENT Inhibitors and Compounds for Use in the Treatment of Cancers” (iTeos Belgium SA, priority 2022, published 2026)

target: T1, human ENT1 (Homo sapiens, UniProt Q99808); assay: ENT1 binding assay (competition with Sahenta-DY647 on JAR cells); settings: competition with SAHENTA-DY647 binding; IC50 categorized; read-out: Binding Assay IC50
T1 construct: JAR cells expressing ENT1 were purchased from ATCC; host or cells: JAR cells
T1 sequence (Q99808 1-456): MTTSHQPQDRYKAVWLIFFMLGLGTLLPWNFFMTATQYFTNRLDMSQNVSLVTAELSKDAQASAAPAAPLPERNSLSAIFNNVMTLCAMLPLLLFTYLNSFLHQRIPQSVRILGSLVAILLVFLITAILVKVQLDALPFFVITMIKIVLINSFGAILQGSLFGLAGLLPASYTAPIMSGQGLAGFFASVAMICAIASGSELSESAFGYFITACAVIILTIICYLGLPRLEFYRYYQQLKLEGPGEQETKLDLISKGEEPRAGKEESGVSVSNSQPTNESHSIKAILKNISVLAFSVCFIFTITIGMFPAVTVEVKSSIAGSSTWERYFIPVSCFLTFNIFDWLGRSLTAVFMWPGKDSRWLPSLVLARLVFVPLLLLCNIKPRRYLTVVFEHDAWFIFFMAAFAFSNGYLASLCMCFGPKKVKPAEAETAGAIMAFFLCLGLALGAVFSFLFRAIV
Method in brief: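 Fluorescent-tracer displacement: compound incubated with JAR cells 30 min, 4 °C, before Sahenta-DY647 (100 nM) for another 30 min, 4 °C, in Hepes-buffered HBSS with 0.1% BSA. Bound tracer read at 670 nm after washes; IC50 from four-parameter fit, reported as mean of pIC50 values.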

| IC50 [nM] | SMILES |
| --- | --- |
| < 1 | C[C@H]1O[C@@H](n2c(NC3CCCC3)nc3c(OCc4ccc([N+](=O)[O-])cc4)ncnc32)[C@H](O)[C@@H]1O [Compound 6] |
| < 1 | C[C@H]1O[C@@H](n2c(NC3CCOCC3)nc3c(OCc4ccc(C#N)cc4)ncnc32)[C@H](O)[C@@H]1O [Compound 73] |
| < 1 | C[C@H]1O[C@@H](n2c(NC3CCOCC3)nc3c(OCc4ccc(OC(F)F)nc4)ncnc32)[C@H](O)[C@@H]1O [Compound 75] |
| 1 to 20 | C[C@H]1O[C@@H](n2c(N[C@H]3CCC(F)(F)C3)nc3c(OCc4ccc(C#N)cc4)ncnc32)[C@H](O)[C@@H]1O [Compound 82] |

The remaining lines, values behind:

| SMILES | IC50 [nM] |
| --- | --- |
| C[C@H]1O[C@@H](n2c(NC3CCC(O)CC3)nc3c(OCc4ccc([N+](=O)[O-])cc4)ncnc32)[C@H](O)[C@@H]1O (stereo partly shown) [Compound 28] | < 1 |
| C[C@H]1O[C@@H](n2cnc3c(SCc4ccc([N+](=O)[O-])cc4)ncnc32)[C@H](O)[C@@H]1O [Compound 147] | 1 to 20 |
| C[C@H]1O[C@@H](n2cnc3c(N4CCc5ccc([N+](=O)[O-])cc5C4)ncnc32)[C@H](O)[C@@H]1O [Compound 151] | 1 to 20 |
| C[C@H]1O[C@@H](n2cnc3c(OCc4ccc([N+](=O)[O-])cc4)ncnc32)[C@H](O)[C@@H]1O [Compound 166] | 20 to 500 |
| C[C@H]1O[C@@H](n2cnc3c(OCc4ccc(OC(F)F)cc4)ncnc32)[C@H](O)[C@@H]1O [Compound 173] | 20 to 500 |
| OCCOC[C@H]1O[C@@H](n2cnc3c(OCc4ccc(OC(F)(F)F)cc4)ncnc32)[C@H](O)[C@@H]1O [Compound 175] | 20 to 500 |
